Measured values from PMC4413198, “Inhibition of N-Type Calcium Channels by Fluorophenoxyanilide Derivatives” (Marine Drugs, 2015).
“And” between values parts separate entries of the source, which are not always exact repeats. Identical values can stand only once. Like-named read-outs stand apart in the source and are kept apart here.

Experiments:
human Cav2.2 channels [1] = target: T1, human Cav2.2 channels (Homo sapiens, UniProt Q00975); assay: SH-SY5Y neuroblastoma FLIPR assay of KCl-evoked calcium responses in presence of nifedipine; type: cell-based; conditions: for extent of inhibition of KCl-induced Ca2+ responses: in words; for inhibition at 300 µM: SH-SY5Y, read-out: % Max inhibition
T1 sequence (Q00975 whole entry): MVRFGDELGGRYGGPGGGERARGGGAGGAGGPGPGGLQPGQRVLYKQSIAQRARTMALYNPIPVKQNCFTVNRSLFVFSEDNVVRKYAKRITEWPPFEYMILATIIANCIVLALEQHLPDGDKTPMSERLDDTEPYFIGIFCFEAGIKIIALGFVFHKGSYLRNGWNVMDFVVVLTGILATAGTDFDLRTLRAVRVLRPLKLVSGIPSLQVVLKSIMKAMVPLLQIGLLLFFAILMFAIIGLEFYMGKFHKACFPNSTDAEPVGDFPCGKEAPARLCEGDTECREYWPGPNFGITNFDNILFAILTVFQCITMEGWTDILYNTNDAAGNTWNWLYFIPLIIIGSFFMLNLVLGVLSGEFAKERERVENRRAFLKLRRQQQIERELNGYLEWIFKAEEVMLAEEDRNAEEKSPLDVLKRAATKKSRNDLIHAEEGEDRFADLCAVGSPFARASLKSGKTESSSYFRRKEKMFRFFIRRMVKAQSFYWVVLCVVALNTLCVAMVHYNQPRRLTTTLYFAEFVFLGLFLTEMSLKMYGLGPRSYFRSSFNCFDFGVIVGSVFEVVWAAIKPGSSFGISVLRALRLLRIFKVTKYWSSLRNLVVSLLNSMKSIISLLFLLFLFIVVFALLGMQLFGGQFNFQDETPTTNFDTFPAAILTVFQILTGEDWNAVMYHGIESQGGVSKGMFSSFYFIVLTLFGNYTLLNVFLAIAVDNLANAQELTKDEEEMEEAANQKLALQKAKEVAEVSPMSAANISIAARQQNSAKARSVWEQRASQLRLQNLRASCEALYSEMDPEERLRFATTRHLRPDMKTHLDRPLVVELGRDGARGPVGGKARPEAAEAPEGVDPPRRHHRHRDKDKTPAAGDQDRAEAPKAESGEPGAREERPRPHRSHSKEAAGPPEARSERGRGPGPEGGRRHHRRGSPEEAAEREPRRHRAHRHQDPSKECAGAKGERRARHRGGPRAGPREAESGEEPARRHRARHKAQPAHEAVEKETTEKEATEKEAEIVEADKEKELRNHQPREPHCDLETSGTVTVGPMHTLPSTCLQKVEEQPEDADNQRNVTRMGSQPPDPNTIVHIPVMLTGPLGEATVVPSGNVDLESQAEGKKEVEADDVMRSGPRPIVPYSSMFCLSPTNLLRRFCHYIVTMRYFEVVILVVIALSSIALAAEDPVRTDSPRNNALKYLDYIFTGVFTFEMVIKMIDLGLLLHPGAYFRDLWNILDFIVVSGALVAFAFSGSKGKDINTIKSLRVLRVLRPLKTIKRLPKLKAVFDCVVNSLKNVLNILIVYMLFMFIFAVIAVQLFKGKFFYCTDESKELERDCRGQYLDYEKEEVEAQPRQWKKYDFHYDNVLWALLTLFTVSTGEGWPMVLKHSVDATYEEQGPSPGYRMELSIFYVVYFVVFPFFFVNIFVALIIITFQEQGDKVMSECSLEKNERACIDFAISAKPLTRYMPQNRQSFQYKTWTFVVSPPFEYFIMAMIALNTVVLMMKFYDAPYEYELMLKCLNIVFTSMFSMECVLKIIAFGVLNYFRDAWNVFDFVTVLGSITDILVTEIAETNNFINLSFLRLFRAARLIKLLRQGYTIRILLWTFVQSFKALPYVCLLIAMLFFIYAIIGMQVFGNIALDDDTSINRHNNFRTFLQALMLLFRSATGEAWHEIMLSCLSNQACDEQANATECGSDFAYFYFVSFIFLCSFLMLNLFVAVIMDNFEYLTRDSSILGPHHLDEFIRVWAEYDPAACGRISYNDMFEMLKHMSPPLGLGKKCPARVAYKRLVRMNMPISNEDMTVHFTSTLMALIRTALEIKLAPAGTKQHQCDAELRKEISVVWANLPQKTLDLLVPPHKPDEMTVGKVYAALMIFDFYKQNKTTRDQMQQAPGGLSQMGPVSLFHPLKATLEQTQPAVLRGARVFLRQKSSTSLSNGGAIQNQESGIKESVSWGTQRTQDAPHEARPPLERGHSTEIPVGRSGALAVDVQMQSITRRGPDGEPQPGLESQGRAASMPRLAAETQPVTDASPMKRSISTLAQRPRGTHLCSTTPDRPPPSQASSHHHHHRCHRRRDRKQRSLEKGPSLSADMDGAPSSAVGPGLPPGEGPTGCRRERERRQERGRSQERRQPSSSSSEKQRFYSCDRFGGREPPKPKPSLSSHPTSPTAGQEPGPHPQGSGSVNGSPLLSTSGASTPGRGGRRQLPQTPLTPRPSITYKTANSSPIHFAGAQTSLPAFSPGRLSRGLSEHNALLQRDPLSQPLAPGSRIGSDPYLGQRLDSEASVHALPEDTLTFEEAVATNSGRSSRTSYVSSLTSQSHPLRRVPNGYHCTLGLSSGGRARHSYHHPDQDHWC
T1 sequence (P54284 whole entry partner): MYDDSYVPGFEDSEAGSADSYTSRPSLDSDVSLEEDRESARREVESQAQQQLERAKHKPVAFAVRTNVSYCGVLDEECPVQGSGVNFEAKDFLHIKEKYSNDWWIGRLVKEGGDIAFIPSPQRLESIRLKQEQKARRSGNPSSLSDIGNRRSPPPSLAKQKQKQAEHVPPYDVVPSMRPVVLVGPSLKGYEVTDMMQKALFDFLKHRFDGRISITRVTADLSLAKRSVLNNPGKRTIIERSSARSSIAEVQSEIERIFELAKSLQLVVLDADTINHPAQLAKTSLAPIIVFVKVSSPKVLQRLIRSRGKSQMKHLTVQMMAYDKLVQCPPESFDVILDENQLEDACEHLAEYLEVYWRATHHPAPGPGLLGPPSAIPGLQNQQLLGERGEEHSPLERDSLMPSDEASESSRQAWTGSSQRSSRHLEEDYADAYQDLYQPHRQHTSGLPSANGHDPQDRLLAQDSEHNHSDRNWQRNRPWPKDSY
T1 sequence (P54289 25-956 partner limits assumed): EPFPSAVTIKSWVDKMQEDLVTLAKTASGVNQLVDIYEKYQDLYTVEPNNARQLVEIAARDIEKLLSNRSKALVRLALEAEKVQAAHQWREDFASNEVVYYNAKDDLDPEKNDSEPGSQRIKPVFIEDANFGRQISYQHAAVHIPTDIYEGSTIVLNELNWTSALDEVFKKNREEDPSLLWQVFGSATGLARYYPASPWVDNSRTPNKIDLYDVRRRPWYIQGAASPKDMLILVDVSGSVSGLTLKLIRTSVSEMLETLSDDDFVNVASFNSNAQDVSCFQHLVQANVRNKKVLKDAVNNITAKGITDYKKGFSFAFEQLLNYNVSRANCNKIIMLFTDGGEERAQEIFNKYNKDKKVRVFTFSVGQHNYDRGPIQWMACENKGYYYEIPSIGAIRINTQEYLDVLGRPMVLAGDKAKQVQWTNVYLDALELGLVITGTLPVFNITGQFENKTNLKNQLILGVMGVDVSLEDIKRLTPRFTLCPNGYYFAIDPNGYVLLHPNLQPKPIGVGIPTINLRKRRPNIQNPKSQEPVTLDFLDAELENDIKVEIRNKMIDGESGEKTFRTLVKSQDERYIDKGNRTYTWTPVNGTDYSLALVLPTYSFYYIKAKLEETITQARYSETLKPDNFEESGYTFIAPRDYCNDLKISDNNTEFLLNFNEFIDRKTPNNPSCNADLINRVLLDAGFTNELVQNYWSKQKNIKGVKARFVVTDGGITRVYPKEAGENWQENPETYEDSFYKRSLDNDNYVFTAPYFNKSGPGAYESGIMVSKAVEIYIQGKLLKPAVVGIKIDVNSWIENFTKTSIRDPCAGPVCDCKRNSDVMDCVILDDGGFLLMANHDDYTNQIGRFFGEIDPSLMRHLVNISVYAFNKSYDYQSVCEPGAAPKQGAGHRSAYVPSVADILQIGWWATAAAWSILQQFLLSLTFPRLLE
T1 sequence (P54289 957-1103 partner limits assumed): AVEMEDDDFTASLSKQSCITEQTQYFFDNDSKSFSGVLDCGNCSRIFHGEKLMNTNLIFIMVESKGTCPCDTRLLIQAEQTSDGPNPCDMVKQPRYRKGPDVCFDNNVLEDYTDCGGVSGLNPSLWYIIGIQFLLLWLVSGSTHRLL

human Cav2.2 channels [2] = target: T1, human Cav2.2 channels; conditions: HEK293 cells stably expressing human Cav2.2; n = 4–7; personal communication ref 40; read-out: IC50, block of calcium currents; cited from earlier work
[3] = set-up: method as in earlier work; conditions: primary endpoint; cited from earlier work
N-type channel = conditions: cited from earlier work
[4] = SH-SY5Y cells, 90 mM KCl and 5 mM CaCl2, 10 µM nifedipine, 5 min pre-treatment
[5] = SH-SY5Y cells, 90 mM KCl and 5 mM CaCl2, 10 µM nifedipine, 5 min pre-treatment, read-out: IC50

## NCCCOc1ccc(C(=O)Nc2ccccc2Oc2ccc(F)cc2)cc1 [5a, 4-(3-Aminopropoxy)-N-(2-(4-fluorophenoxy)phenyl)benzamide]
Human Cav2.2 channels [1]; [4]
  logIC50: –4.34
Human Cav2.2 channels [1]; [5]
  IC50: 46 µM
Human Cav2.2 channels [1]; SH-SY5Y cells
  extent of inhibition of KCl-induced Ca2+ responses: fully blocked

## NCCCOc1ccc(C(=O)Nc2cccc(Oc3ccc(F)cc3)c2)cc1 [5b, 4-(3-Aminopropoxy)-N-(3-(4-fluorophenoxy)phenyl)benzamide]
Human Cav2.2 channels [1]; [4]
  logIC50: –4.45
Human Cav2.2 channels [1]; [5]
  IC50: 35 µM
Human Cav2.2 channels [1]; SH-SY5Y cells
  extent of inhibition of KCl-induced Ca2+ responses: fully blocked

## NCCCOc1ccc(C(=O)Nc2ccc(Oc3ccc(F)cc3)cc2)cc1 [5c, 4-(3-Aminopropoxy)-N-(4-(4-fluorophenoxy)phenyl)benzamide]
Human Cav2.2 channels [1]; [4]
  logIC50: ~–3.12
Human Cav2.2 channels [1]; [5]
  IC50: 764 µM
Human Cav2.2 channels [1]; SH-SY5Y cells
  extent of inhibition of KCl-induced Ca2+ responses: partially inhibited responses
Human Cav2.2 channels [1]
  inhibition at 300 µM: 30%

## Cl.N=C(N)NCCCOc1ccc(C(=O)Nc2ccccc2Oc2ccc(F)cc2)cc1 [6a, N-(2-(4-Fluorophenoxy)phenyl)-4-(3-guanidinopropoxy)benzamide hydrochloride]
Human Cav2.2 channels [1]; [4]
  logIC50: –3.90
Human Cav2.2 channels [1]
  inhibition at 300 µM: 65%
Human Cav2.2 channels [2]
  IC50: 36.3 ± 2.4 µM

## Cl.N=C(N)NCCCOc1ccc(C(=O)Nc2cccc(Oc3ccc(F)cc3)c2)cc1 [6b, N-(3-(4-Fluorophenoxy)phenyl)-4-(3-guanidinopropoxy)benzamide hydrochloride]
Human Cav2.2 channels [1]; [4]
  logIC50: –3.73
Human Cav2.2 channels [1]; [5]
  IC50: 185 µM

## Cl.N=C(N)NCCCOc1ccc(C(=O)Nc2ccc(Oc3ccc(F)cc3)cc2)cc1 [6c, N-(4-(4-Fluorophenoxy)phenyl)-4-(3-guanidinopropoxy)benzamide hydrochloride]
Human Cav2.2 channels [1]; [4]
  logIC50: –3.14
Human Cav2.2 channels [1]; [5]
  IC50: 723 µM
Human Cav2.2 channels [1]; SH-SY5Y cells
  extent of inhibition of KCl-induced Ca2+ responses: partially inhibited responses
Human Cav2.2 channels [1]
  inhibition at 300 µM: 19%

## O=C(CC(c1ccccc1)c1ccccc1)N1CCN(C(c2ccccc2)c2ccccc2)CC1 [Z160]
[3]
  outcome of Phase II clinical studies: failed to meet the primary endpoint

## N=C(N)NCCCCCCCC(=O)Nc1ccc(OCCCNC(=N)N)cc1C(=O)Nc1ccc(Oc2ccc(F)cc2)cc1 [compound 3, reference compound]
Human Cav2.2 channels [1]
  extent of inhibition of Ca2+ responses at 1 mM: only partially inhibited responses
  logIC50: ~–2.84
  inhibition at 300 µM: 15%
Human Cav2.2 channels [1]; IC50
  IC50: ~1450 µM and 1450 µM
N-type channel
  activity in radioligand-displacement assay (in words): most potent fluorinated analogue

## NCCCCCCCC(=O)Nc1ccc(OCCCN)cc1C(=O)Nc1ccc(Oc2ccc(F)cc2)cc1 [compound 4]
N-type channel
  activity in radioligand-displacement assay (in words): comparatively weak activity
